In patent US20230272368A1, “PRODUCTS AND METHODS FOR DETECTION OF VIRAL NUCLEIC ACID” (priority 2020, published 2023):

Conditions: compared with sodium dodecyl sulfate (SDS)

Substance: sodium lauroyl sarcosinate [SLS]
- solubility in the compositions: detergent to be substantially more soluble in our
